Assay results from ChEMBL document CHEMBL5620436, “Structure-Guided Design and Optimization of Covalent VHL-Targeted Sulfonyl Fluoride PROTACs” (J Med Chem, 2024).
Calls of active or inactive are those of the source. The rule behind the calls is not given here.

How the values were obtained:
[1] = target: T1, von Hippel-Lindau disease tumor suppressor (Homo sapiens, UniProt P40337); experiment: Inhibition of VHL in HEK293T cells assessed as target engagement incubated for 2 hrs by Streptavidin-pull down blotting assay; format: cell-based; conditions: dose 1-100 µM
LNCaP = experiment: Cytotoxicity against human LNCaP cells harbouring HiBit tagged AR assessed as reduction in cell viability measured after 16 hrs by cell titer glo assay; format: functional, cell-based
[2] = target: T2, von Hippel-Lindau disease tumor suppressor/Androgen receptor (Homo sapiens) (UniProt P10275+P40337); experiment: PROTAC activity at VHL/HiBit tagged AR in human LNCaP cells assessed as degradation of AR preincubated with epoxomicin for 3 hrs followed by compound addition and measured after 18 hrs by Nano-Glo HiBiT assay; format: cell-based
[3] = target: T2, von Hippel-Lindau disease tumor suppressor/Androgen receptor (Homo sapiens); experiment: PROTAC activity at VHL/HiBit tagged AR in human LNCaP cells assessed as degradation of AR preincubated with MLN4924 for 3 hrs followed by compound addition and measured after 18 hrs by Nano-Glo HiBiT assay; format: cell-based
[4] = target: T3, von Hippel-Lindau disease tumor suppressor/Bromodomain-containing protein 4 (Homo sapiens, UniProt O60885+P40337); experiment: PROTAC activity at HiBit tagged BRD4/VHL E3 ligase in human HEK293 cells assessed as degradation of BRD4 preincubated with MLN4924 for 3 hrs followed by compound addition and measured after 18 hrs by Nano-Glo HiBiT assay; format: cell-based
[5] = target: T3, von Hippel-Lindau disease tumor suppressor/Bromodomain-containing protein 4; experiment: PROTAC activity at HiBit tagged BRD4/VHL E3 ligase in human HEK293 cells assessed as degradation of BRD4 preincubated with epoxomicin for 3 hrs followed by compound addition and measured after 18 hrs by Nano-Glo HiBiT assay; format: cell-based
HEK293 = experiment: Cytotoxicity against human HEK293 cells harbouring HiBit tagged BRD4 assessed as reduction in cell viability measured after 18 hrs by cell titer glo assay; format: toxicity, cell-based; conditions: hek293, 18 h
[6] = target: T3, von Hippel-Lindau disease tumor suppressor/Bromodomain-containing protein 4; experiment: PROTAC activity at HiBit tagged BRD4/VHL E3 ligase in human HEK293 cells assessed as degradation of BRD4 incubated for 18 hrs by Nano-Glo HiBiT assay; format: cell-based
[7] = target: T1, von Hippel-Lindau disease tumor suppressor; experiment: Inhibition of N-terminal 6his tagged human VHL (1 to 213 residues) expressed in HEK293 cells using NanoBRET NanoGlo substrate by NanoBRET assay; format: cell-based

## Cc1cc([C@H](C(=O)N2C[C@H](S(=O)(=O)F)C[C@H]2C(=O)N[C@@H](CC(=O)NCCOCCOCCOCCNC(=O)CCCC[C@H]2SC[C@@H]3NC(=O)N[C@@H]32)c2ccc(-c3scnc3C)cc2)C(C)C)on1
[1]
  inhibition: Dose-Dependent Effect

## Cc1cc([C@H](C(=O)N2C[C@H](S(=O)(=O)F)C[C@H]2C(=O)N[C@@H](CC(=O)N2CCC(C#Cc3ccc(C(=O)N[C@H]4C(C)(C)[C@H](Oc5ccc(C#N)c(Cl)c5)C4(C)C)cc3)CC2)c2ccc(-c3scnc3C)cc2)C(C)C)on1
LNCaP
  Activity: inactive
[2]
  Activity: inactive
[3]
  Activity: inactive

## COCC(COC)n1c(-c2cc(C)c(=O)n(C)c2)nc2cc(C3CCN(C(=O)COCCOCCOCCNC(=O)C[C@H](NC(=O)[C@@H]4C[C@@H](S(=O)(=O)F)CN4C(=O)[C@@H](c4cc(C)no4)C(C)C)c4ccc(-c5scnc5C)cc4)CC3)ccc21
[4]
  Activity: inactive
[5]
  Activity: inactive
HEK293
  Activity: Non-Toxic
[6]
  EC50: 17.2 µM

## CC(=O)N[C@H](C(=O)N1C[C@H](S(=O)(=O)F)C[C@H]1C(=O)NCc1ccc(-c2scnc2C)cc1)C(C)(C)C
[7]
  IC50: > 100 µM

## Cc1cc([C@H](C(=O)N2C[C@H](S(=O)(=O)F)C[C@H]2C(=O)N[C@@H](CC(=O)N2CCC(C#Cc3ccc(C(=O)N[C@H]4C(C)(C)[C@H](Oc5ccc(C#N)c(C(F)(F)F)c5)C4(C)C)cc3)CC2)c2ccc(-c3scnc3C)cc2)C(C)C)on1
LNCaP
  Activity: inactive
[2]
  Activity: inactive
[3]
  Activity: inactive
